Measured values from US8389523B2, “Substituted quinoxaline and an agrochemical composition thereof” (Kumiai Chemical Industry Co., Ltd., priority 2007, dated 2013).

What was measured:
Assay type in all cases: in vivo
Design in all cases: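 grade 0 to 5 of growth suppression where 5 is 90% or more and 0 below 10%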
[1] = system: Monochoria vaginalis (Burm. f.) Presl var. plantaginea (Roxb.) Solms-Laub.; assay: Herbicidal effects in paddy field soil treatment (Test Example 1); details: paddy field soil treatment; 1000 g of the active ingredient per hectare; wettable powder added dropwise on water surface; 21st day after treatment
Protocol: (§1) Test for Herbicidal Effects in Paddy Field Soil Treatment
(§2) A 100-cm^2 plastic pot was filled with paddy field soil. After puddling and leveling, seeds of Echinochloa oryzicola Vasing, Monochoria vaginalis (Burm. f.) Presl var. plantaginea (Roxb.) Solms-Laub., and Scirpus juncoides Roxb. var. ohwianus. T. Koyama were sowed, and the soil was waterlogged to a water depth of 3 cm. On the next day, a wettable powder formulation prepared according to Preparation Example 1 was diluted with water, and was added dropwise on the water surface. The amount of application was an amount equivalent to 1000 g of the active ingredient per hectare. Thereafter, the plants were grown in a greenhouse, and on the 21st day after the treatment, the herbicidal effects were investigated according to the criteria described in Table 138.

[2] = system: Scirpus juncoides Roxb. var. ohwianus. T. Koyama; assay: as above; details: paddy field soil treatment; 1000 g of the active ingredient per hectare; wettable powder added dropwise on water surface; 21st day after treatment
Protocol: as §1, §2

[3] = system: Echinochloa oryzicola Vasing; assay: as above; details: paddy field soil treatment; 1000 g of the active ingredient per hectare; wettable powder added dropwise on water surface; 21st day after treatment
Protocol: as §1, §2

[4] = system: Abutilon theophrasti medicus; assay: Herbicidal effects in upland field soil treatment (Test Example 2); details: 1000 g active ingredient per hectare, 21st day after treatment, criteria of Table 138
Protocol: (§3) Test Example 2 Test on Herbicidal Effects in Upland Field Soil Treatment A 80-cm^2 plastic pot was filled with upland field soil. Seeds of Abutilon theophrasti medicus and Amaranthus viridis L. were sowed, and soil was covered. A wettable powder formulation prepared according to Preparation Example 1 was diluted with water, and was uniformly sprayed on the soil surface with a small sprayer, in an amount equivalent to 1000 liters per hectare, such that 1000 g of the active ingredient per hectare was applied. Thereafter, the plants were grown in a greenhouse, and on the 21st day after the treatment, the herbicidal effects were investigated according to the criteria described in the Table 138 shown above.

Amaranthus viridis L. = assay: as above; details: 1000 g active ingredient per hectare, 21st day after treatment, criteria of Table 138
Protocol: as §3

| SMILES | Herbicidal effects index, Monochoria vaginalis (Burm. f.) Presl var. plantaginea (Roxb.) Solms-Laub. [1] | Herbicidal effects index, Scirpus juncoides Roxb. var. ohwianus. T. Koyama [2] | Herbicidal effects index, Echinochloa oryzicola Vasing [3] | herbicidal effect (index) on Abutilon theophrasti medicus [4] | herbicidal effect (index) on Amaranthus viridis L. (Amaranthus viridis L.) |
| --- | --- | --- | --- | --- | --- |
| COc1ccc(-n2c(=O)c(C(=O)C3=C(O)CCCC3=O)nc3c(F)cccc32)cc1 [II-186, 5-fluoro-3-(2-hydroxy-6-oxo-1-cyclohexenecarbonyl)-1-(4-methoxyphenyl)-quinoxalin-2(1H)-one] | 5 | 5 | 4 | 5 | 5 |
| O=C1CCCC(O)=C1C(=O)c1nc2ccccc2n(Cc2ccc(Cl)cc2)c1=O [I-113] | 5 | 5 | 5 | – | – |
| CC(C)c1cccc(-n2c(=O)c(C(=O)C3=C(O)CCCC3=O)nc3ccccc32)c1 [II-29] | 5 | 5 | 5 | 4 | 5 |
| CC(C)(C)c1cc(-n2c(=O)c(C(=O)C3=C(O)CCCC3=O)nc3ccccc32)no1 [I-265] | 5 | 5 | 4 | 4 | 5 |
| COc1cccc(Cn2c(=O)c(C(=O)C3=C(O)CCCC3=O)nc3ccccc32)c1 [I-125] | 5 | 5 | 4 | – | – |
| Cn1c(=S)c(C(=O)C2=C(O)CCCC2=O)nc2ccccc21 [I-256, 3-hydroxy-2-(1-methyl-2-thioxo-1,2-dihydroquinoxalin-3-yl-carbonyl)-2-cyclohexen-1-one] | – | – | – | 5 | 5 |
| CCn1c(=O)c(C(=O)C2=C(O)CCCC2=O)nc2c(Cl)cccc21 [I-363] | 5 | 5 | 5 | 5 | 5 |
| CC1CC(C)(C)C(O)=C(C(=O)c2nc3ccccc3n(-c3ccc4c(c3)OCCO4)c2=O)C1=O (centres unmarked) [II-230] | 5 | 5 | 4 | 4 | 5 |
| COc1ccc(-n2c(=O)c(C(=O)C3=C(O)CCCC3=O)nc3c(F)c(F)c(OC)c(F)c32)cc1 [II-302] | – | – | – | 4 | 5 |
| O=C1CCCC(O)=C1C(=O)c1nc2cc(F)ccc2n(Cc2ccccc2)c1=O [I-280] | 5 | 5 | 5 | – | – |
| COc1c(F)cc(-n2c(=O)c(C(=O)C3=C(O)CCCC3=O)nc3ccc(C)cc32)cc1F [II-248] | 5 | 5 | 5 | – | – |
| COc1ccc(-n2c(=O)c(C(=O)C3=C(O)CCCC3=O)nc3ccccc32)c(Cl)c1 [II-175] | 5 | 5 | 4 | – | – |
| COC(=O)c1ccc(-n2c(=O)c(C(=O)C3=C(O)CCCC3=O)nc3ccccc32)cc1 [II-146] | – | – | – | 4 | 5 |
| COc1ccc(-n2c(=O)c(C(=O)C3=C(O)CCCC3=O)nc3ccccc32)cc1Cl [II-179] | 5 | 5 | 4 | – | – |
| CCNc1nc(NC(C)C)nc(-n2c(=O)c(C(=O)C3=C(O)CCCC3=O)nc3ccccc32)n1 [I-274] | 5 | 4 | 5 | – | – |
| COc1ccc(-n2c(=O)c(C(=O)C3=C(O)CCCC3=O)nc3c(Cl)cc(Cl)cc32)cc1 [II-262] | – | – | – | 4 | 5 |
| COc1ccc(-n2c(=O)c(C(=O)C3=C(O)CCCC3=O)nc3ccccc32)cc1OC [II-169] | 5 | 5 | 5 | – | – |

| SMILES | Herbicidal effects index, Monochoria vaginalis (Burm. f.) Presl var. plantaginea (Roxb.) Solms-Laub. [1] | Herbicidal effects index, Scirpus juncoides Roxb. var. ohwianus. T. Koyama [2] | Herbicidal effects index, Echinochloa oryzicola Vasing [3] | herbicidal effect (index) on Abutilon theophrasti medicus [4] | herbicidal effect (index) on Amaranthus viridis L. (Amaranthus viridis L.) |
| --- | --- | --- | --- | --- | --- |
| COc1ccc(-n2c(=O)c(C(=O)C3=C(O)CCCC3=O)nc3ccccc32)c(OC)c1 [II-177] | 5 | 5 | 4 | – | – |
| COc1ccccc1Cn1c(=O)c(C(=O)C2=C(O)CCCC2=O)nc2ccccc21 [I-120] | 5 | 5 | 4 | – | – |
| O=C1CCCC(O)=C1C(=O)c1nc2ccccc2n(-c2ccc(OCC(F)(F)F)cc2)c1=O [II-209] | 5 | 5 | 5 | – | – |
| CS(=O)(=O)Cn1c(=O)c(C(=O)C2=C(O)CCCC2=O)nc2ccccc21 [I-80] | – | – | – | 5 | 5 |
| COc1ccc(-n2c(=O)c(C(=O)C3=C(O)CCCC3=O)nc3cc(Cl)ccc32)cc1 [II-195] | 5 | 5 | 5 | – | – |
| CC(C)(C)n1c(=O)c(C(=O)C2=C(O)CCCC2=O)nc2ccccc21 [I-18] | – | – | – | 5 | 5 |
| COc1ccc(-n2c(=O)c(C(=O)C3=C(O)CCCC3=O)nc3c(F)c(F)ccc32)cc1 [II-258] | 5 | 5 | 4 | – | – |
| COc1ccc(-n2c(=O)c(C(=O)C3=C(O)CCCC3=O)nc3cc(F)ccc32)cc1 [II-187] | 5 | 5 | 5 | – | – |
| COc1ccc(Cn2c(=O)c(C(=O)C3=C(O)CCCC3=O)nc3ccccc32)cc1 [I-126] | 5 | 5 | 4 | – | – |
| Cn1ccc2cc(-n3c(=O)c(C(=O)C4=C(O)CCCC4=O)nc4ccccc43)ccc21 [I-276] | 5 | 5 | 5 | – | – |
| CC(=O)c1ccc(-n2c(=O)c(C(=O)C3=C(O)CCCC3=O)nc3ccccc32)cc1 [II-140] | 5 | 4 | 5 | – | – |
| COc1ccc(-n2c(=O)c(C(=O)C3=C(O)CCCC3=O)nc3cc(C)ccc32)cc1 [II-246] | 5 | 5 | 4 | – | – |
| COc1ccc(-n2c(=O)c(C(=O)C3=C(O)CCCC3=O)nc3ccc(OC)cc32)cc1 [II-253] | 5 | 5 | 5 | – | – |
| COc1ccc2c(c1)nc(C(=O)C1=C(O)CCCC1=O)c(=O)n2-c1ccccc1 [II-250] | – | – | – | 5 | 5 |
| CC(C(=O)OC(C)(C)C)n1c(=O)c(C(=O)C2=C(O)CCCC2=O)nc2cccnc21 (centres unmarked) [III-233] | – | – | – | 5 | 5 |
| O=C1CCCC(O)=C1C(=O)c1nc2ccccc2n(C2CCSCC2)c1=O [I-166] | 5 | 5 | 4 | – | – |
